In general, Kd refers to the concentration at which binding is half-saturated.

These results are taken from publication PMC7894523 (Chemistry (Weinheim an Der Bergstrasse, Germany), 2020).

The assay deals with T1, 15N-labeled carbohydrate recognition domain (CRD) of DC-SIGN (Homo sapiens, UniProt Q9NNX6).
T1 sequence (Q9NNX6 250-404 limits assumed): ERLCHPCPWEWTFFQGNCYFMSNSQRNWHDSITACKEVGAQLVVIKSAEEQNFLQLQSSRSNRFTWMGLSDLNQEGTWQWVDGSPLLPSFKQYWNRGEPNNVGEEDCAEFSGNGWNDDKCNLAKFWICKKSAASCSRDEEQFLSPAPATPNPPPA
The experiment in a line: 1H-15N HSQC titration, chemical shift perturbation. In kind it is binding.

As for `CC(=O)N[C@H]1[C@H](O[C@H]2[C@H](O[C@@H]3O[C@@H](C)[C@@H](O)[C@@H](O)[C@@H]3O)[C@@H](NC(C)=O)[C@H](OCCCCCN)O[C@@H]2CO)O[C@H](CO)[C@H](O)[C@@H]1O` [compound 12, LDN-F], the dissociation constant (Kd) amounted to 1.5 ± 0.4 mM.
